Consider two compounds from US20230365541A1, “INHIBITOR OF ENHANCER OF ZESTE HOMOLOGUE 2, AND USE THEREOF” (HAISCO PHARMACEUTICALS PTE. LTD., priority 2020, published 2023).

One data set concerns the target CYP2C9 (Homo sapiens (Human), UniProt P11712). Put plainly: Cytochrome P450 isozyme inhibition experiment, CYP2C9. Type of data set: in vitro ADME. To be noted: human liver microsomes. The method, then:
(§1) Experimental objective: the inhibitory effects of test compounds on the activity of human liver microsomal cytochrome P450 isozymes (CYP1A2, CYP2C9, CYP2C19, CYP2D6 and CYP3A4) were determined. […]
A general note: Liver microsomes are vesicles of endoplasmic reticulum, rich in cytochrome P450 enzymes.

Another data set deals with CYP2C19 (Homo sapiens (Human), UniProt P33261). Put plainly: Cytochrome P450 isozyme inhibition experiment, CYP2C19. To be noted: human liver microsomes. The class given is in vitro ADME. How it is done: as §1
The target of the next data set is EZH2 (Homo sapiens (Human), UniProt Q15910). Put plainly: Test method for EZH2 enzyme activity. The class given is biochemical. To be noted: H3K27(21-44) and [3H]-SAM. In a few lines: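 EZH2 (3 nM final) preincubated 15 min with compound in Tris-HCl pH 9.0 buffer, then H3K27(21-44) peptide and [3H]-SAM added (mixture at 200 nM and 100 nM) for 60 min at room temperature. Reaction quenched with cold SAM; flashplate scintillation read, inhibition normalized to controls and IC50 fitted.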

Another data set deals with CYP2D6 (Homo sapiens (Human), UniProt P10635). Description: Cytochrome P450 isozyme inhibition experiment, CYP2D6. Type of data set: in vitro ADME. To be noted: human liver microsomes. How it is done: as §1
The next data set deals with CYP3A4 (Homo sapiens (Human), UniProt P08684). Description: Cytochrome P450 isozyme inhibition experiment, CYP3A4. Type of data set: in vitro ADME. To be noted: human liver microsomes, CYP3A4-M. How it is done: as §1
A short description of data set [1]: Pharmacokinetic experiment in monkeys. The class given is in vivo. To be noted: male, cynomolgus monkey, plasma. How it is done: Experimental animal: twelve cynomolgus monkeys, 2.4-5.9 kg, male, 3-5.5 years old, purchased from Suzhou Xishan Zhongke Laboratory Animal Co., Ltd, with the production license number of SCXK(SU) 2018-0001.
Before and after the administration, 1.0 mL of blood was taken from the front and rear limb veins of the animals, and placed in an EDTAK2 centrifuge tube. […] Before analysis and detection, all plasma samples were stored at −80° C.

Another data set deals with SU-DHL-6 cells. Put plainly: SU-DHL-6 cell proliferation test. Type of data set: cell-based, human. The following applies: incubated for 14 days. Put shortly: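 SU-DHL-6 B-cell lymphoma cells seeded at 1×10^5 cells/mL in RPMI-1640/10% FBS with compound at 37 °C. Every 3-4 days cells were counted, reset to 1×10^5 cells/mL and re-dosed; IC50 derived from counts at day 14.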

Another data set has as its target CYP1A2 (Homo sapiens (Human), UniProt P05177). Put plainly: Cytochrome P450 isozyme inhibition experiment, CYP1A2. The following applies: human liver microsomes. The class given is in vitro ADME. The method, then: as §1
Data set [2] in a line: Pharmacokinetic experiment in mice (intravenous 5 mg/kg or intragastric 30 mg/kg). The following applies: male, ICR, mouse, plasma; for AUC: read-out: AUC. The class given is in vivo. How it is done: The administration was performed according to table 5.
The concentrations of the compounds in EDTA-K2 anticoagulant plasma were determined by the LC-MS/MS method. The linear range of the standard curve of the compounds is 2-2000 ng/mL. After subjected to precipitating proteins with acetonitrile, the samples were analyzed by LC-MS/MS. The standard curve was subjected to a regression calculation using the weighted least square method (W=1/X^2), and quantified by calculating the ratio of test compound peak area to internal standard peak area.
• (1) except to the blank sample, 400 μL of internal standard working solution (Verapamil internal standard concentration in precipitant acetonitrile is 10.0 ng/mL) was added to a 1.5 mL centrifuge tube containing 30 μL of standard curve samples and quality control samples; • 200 μL of internal standard working solution (Verapamil internal standard concentration in precipitant acetonitrile is 10.0 ng/mL) was added to a 1.5 mL centrifuge tube containing 15 μL of unknown samples; • and 400 μL of acetonitrile was added to the blank sample; • (2) the mixture was mixed evenly for about 1 min in a vortex mixer; • (3) centrifugation was carried out at 10000 rpm at 4C for 10 mi; • (4) 175 μL of the supernatant was transferred to a new 96-well polypropylene plate, and then the plate was sealed and placed in a 10° C. sample tray for injection.

Structures are written as SMILES.

Chain of CYP2C19 (P33261 whole entry): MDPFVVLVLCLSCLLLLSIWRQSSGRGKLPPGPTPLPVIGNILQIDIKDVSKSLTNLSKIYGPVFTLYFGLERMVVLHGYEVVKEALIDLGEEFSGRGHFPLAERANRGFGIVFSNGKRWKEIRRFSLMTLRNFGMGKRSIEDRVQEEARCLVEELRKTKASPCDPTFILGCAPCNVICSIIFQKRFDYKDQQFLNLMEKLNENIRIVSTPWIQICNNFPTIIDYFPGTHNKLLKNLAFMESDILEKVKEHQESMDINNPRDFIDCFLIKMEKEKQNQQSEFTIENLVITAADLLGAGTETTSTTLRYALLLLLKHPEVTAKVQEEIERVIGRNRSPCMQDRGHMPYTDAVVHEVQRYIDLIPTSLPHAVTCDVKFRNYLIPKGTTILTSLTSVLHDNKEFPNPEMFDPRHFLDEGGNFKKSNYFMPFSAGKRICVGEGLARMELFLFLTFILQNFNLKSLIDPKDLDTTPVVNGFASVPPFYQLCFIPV
Chain of CYP2D6 (P10635 whole entry): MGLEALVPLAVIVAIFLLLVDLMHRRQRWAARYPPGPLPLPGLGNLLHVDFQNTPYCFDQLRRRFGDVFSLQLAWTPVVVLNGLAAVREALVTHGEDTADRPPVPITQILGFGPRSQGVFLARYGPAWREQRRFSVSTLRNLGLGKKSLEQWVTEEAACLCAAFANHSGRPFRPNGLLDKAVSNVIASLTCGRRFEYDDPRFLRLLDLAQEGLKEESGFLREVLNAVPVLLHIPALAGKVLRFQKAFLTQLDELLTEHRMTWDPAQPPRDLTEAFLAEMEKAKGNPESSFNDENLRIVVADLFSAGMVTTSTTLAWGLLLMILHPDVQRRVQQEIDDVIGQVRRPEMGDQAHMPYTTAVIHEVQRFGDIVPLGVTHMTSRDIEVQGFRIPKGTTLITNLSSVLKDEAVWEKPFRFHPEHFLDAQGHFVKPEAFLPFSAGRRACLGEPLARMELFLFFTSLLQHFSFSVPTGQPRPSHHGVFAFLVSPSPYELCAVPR
Chain of CYP1A2 (P05177 whole entry): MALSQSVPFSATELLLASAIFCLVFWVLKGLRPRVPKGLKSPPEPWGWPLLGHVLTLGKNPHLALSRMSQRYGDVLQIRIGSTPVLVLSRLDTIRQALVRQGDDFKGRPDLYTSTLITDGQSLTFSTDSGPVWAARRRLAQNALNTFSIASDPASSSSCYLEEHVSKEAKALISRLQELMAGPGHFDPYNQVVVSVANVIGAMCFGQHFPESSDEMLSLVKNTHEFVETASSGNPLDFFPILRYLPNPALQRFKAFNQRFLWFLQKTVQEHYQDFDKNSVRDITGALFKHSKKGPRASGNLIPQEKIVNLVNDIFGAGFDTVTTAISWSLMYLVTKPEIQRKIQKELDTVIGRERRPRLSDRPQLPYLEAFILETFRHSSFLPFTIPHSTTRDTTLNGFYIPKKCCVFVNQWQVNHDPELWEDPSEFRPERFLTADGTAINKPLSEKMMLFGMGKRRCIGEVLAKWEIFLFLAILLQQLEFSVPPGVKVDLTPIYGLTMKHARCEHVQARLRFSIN
Chain of CYP3A4 (P08684 whole entry): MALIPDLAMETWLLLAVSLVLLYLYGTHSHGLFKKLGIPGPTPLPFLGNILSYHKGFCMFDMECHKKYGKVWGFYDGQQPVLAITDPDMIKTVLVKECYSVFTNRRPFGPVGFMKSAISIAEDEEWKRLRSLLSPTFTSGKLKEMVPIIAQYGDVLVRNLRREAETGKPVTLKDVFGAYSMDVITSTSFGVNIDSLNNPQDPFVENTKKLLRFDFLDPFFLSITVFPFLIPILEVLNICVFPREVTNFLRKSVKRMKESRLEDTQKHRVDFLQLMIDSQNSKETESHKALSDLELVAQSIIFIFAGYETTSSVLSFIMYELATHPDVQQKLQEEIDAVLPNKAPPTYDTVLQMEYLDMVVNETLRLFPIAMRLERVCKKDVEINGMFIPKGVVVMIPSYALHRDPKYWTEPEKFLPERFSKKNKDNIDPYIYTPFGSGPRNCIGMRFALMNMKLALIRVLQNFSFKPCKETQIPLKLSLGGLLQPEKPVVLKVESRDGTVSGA
Chain of CYP2C9 (P11712 whole entry): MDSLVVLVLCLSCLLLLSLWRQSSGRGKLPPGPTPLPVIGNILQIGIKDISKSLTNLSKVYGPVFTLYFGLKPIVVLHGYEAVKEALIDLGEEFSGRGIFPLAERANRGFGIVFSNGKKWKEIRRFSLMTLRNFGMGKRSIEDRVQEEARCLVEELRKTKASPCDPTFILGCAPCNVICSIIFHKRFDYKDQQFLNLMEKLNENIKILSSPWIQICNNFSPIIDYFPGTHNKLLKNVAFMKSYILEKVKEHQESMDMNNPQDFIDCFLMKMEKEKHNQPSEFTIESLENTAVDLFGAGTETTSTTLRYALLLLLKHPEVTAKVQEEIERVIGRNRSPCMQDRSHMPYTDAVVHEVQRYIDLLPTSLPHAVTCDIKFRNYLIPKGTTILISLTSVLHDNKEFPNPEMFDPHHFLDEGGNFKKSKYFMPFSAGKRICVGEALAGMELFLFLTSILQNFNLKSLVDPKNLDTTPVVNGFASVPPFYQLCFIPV

Regarding `[2H]C([2H])(NC(=O)c1cc(Cl)c2c(c1C)OC(C)(C1CCC(NC3COC3)CC1)O2)c1c(SC)cc(C)[nH]c1=O` (single isomer, unassigned) [Compound 59, isomer 2, 7-chloro-2,4-dimethyl-N-((6-methyl-4-(methylthio)-2-oxo-1,2-dihydropyridin-3-yl)methyl-d2)-2-(4-(oxetan-3-ylamino)cyclohexyl)benzo[d][1,3]dioxole-5-carboxamide], the half-maximal inhibitory concentration (IC50) (usually the concentration that gives 50% inhibition) against CYP2C9 was above 50 µM; at CYP2C19, above 50 µM; on EZH2, 0.00044 µM; at CYP2D6 it was above 50 µM; at CYP3A4 it was above 50 µM; with SU-DHL-6 cells, 0.00635 µM. This compound gave an IC50 on CYP1A2 above 50 µM. Moreover, the exposure (AUC) – broadly, the area under the concentration-time curve, a measure of exposure – was 1570 ± 39 ng·h/mL in [1] (IV 3 mg/kg) and 3310 ± 526 ng·h/mL in data set [1] (PO 15 mg/kg). For the same compound, the C0 in data set [1] (IV 3 mg/kg) was 2960 ± 601 ng/mL. Also, the half-life (commonly the time in which the quantity being followed falls by half) in data set [1] (IV 3 mg/kg) is 2.68 ± 0.14 h; in data set [1] (PO 15 mg/kg), 5.11 ± 0.32 h. Moreover, in [1] (PO 15 mg/kg), the Cmax (as a rule, the maximum level reached in the sampled fluid or tissue) was 2320 ± 562 ng/mL. In addition, the Tmax (in general, the time at which the peak concentration occurs) in [1] (PO 15 mg/kg) was found to be 1 h. For the same compound, in data set [1] (PO 15 mg/kg vs IV 3 mg/kg), the bioavailability – broadly, dose-corrected exposure relative to a reference, in per cent – is 42.1 ± 6.7%.

For `Cc1cc(C)c(CNC(=O)c2cc(Cl)c3c(c2C)O[C@@](C)([C@H]2CC[C@H](N(C)C)CC2)O3)c(=O)[nH]1` [Compound I-2, Valemetostat, reference compound], the half-life in data set [2] (iv, 5 mg/kg, IV 5 mg/kg) was 6.31 h; in data set [2] (po, 30 mg/kg, PO 30 mg/kg), 3.05 h. The AUC in data set [2] (iv, 5 mg/kg, IV 5 mg/kg) came to 1180 ng·h/mL; in data set [2] (po, 30 mg/kg, PO 30 mg/kg), 645 ng·h/mL. Moreover, the C0 in data set [2] (iv, 5 mg/kg, IV 5 mg/kg, read-out: C0) stood at 2140 ng/mL. For the same compound, in data set [2] (po, 30 mg/kg, PO 30 mg/kg vs IV 5 mg/kg), the bioavailability amounted to 9.08%. Also, in data set [2] (po, 30 mg/kg, PO 30 mg/kg, read-out: Cmax), the Cmax stood at 262 ng/mL. In addition, the Tmax in data set [2] (po, 30 mg/kg, PO 30 mg/kg, read-out: Tmax) is 0.25 h. The IC50 on CYP2C9 was above 50 µM; against CYP2C19 it was above 50 µM; against CYP2D6, above 50 µM; at CYP3A4 it was 16.3 µM; against CYP1A2, above 50 µM.
